# Measurements taken from patent US4150137A, “Pyridylalkyl esters of 2-(p-isobutylphenyl)acetic acid and propionic acids and use” (Hisamitsu Pharmaceutical Co. Inc., priority 1975, dated 1979).
# Experiments:
# [1] = test system: carrageenin-induced leakage of the pigment, dorsal skin; assay: Anti-inflammatory activity for topical route (carrageenin, leakage of pigment in dorsal skin); type: in vivo, rat (Wistar-strain); conditions: 1% in polyethylene glycol 300, percent inhibition divided by that of ibuprofen
# Description: The dorsal skin of male rats of Wistar-strain(body weight: about 100 g) were depilated. Carrageenin suspension was injected intra-dermally at a dose of 250 γ/0.05 ml/site. […] Immediately after injection, the filter paper containing 125.2±18.0 mg of the polyethylene glycol was applied on the injected site. After 3 hours, 1% pontamine sky blue solution was injected intravenously at a dose of 0.5 ml/kg. After further 3 hours, the animals were sacrificed and their dorsal skin were removed to measure the area of leakage of the pigment. The percent inhibition was determined with respect to the results for the control animals.
# carrageenin edema = assay: Anti-inflammatory activity for oral route (carrageenin edema, hind paw); type: in vivo, rat (Wistar-strain); conditions: percent inhibition divided by that of ibuprofen, carrageenin edema after 3 hours; for anti-inflammatory effect, oral, 10 mg/kg (relative inhibition, ibuprofen = 1.0): 10 mg/kg oral; for anti-inflammatory effect, oral, 50 mg/kg (relative inhibition, ibuprofen = 1.0): 50 mg/kg oral
# Description: After 30 minutes 0.5-1.0% carrageenin suspended in the water for injection was injected subcutaneously to a hind paw. After 3 hours the carrageenin edema was measured by volume, and the percent inhibition was determined with respect to the results for the control animals.
# male mice of dd-strain = type: in vivo; conditions: death of animals 72 hours following administration
# Description: Each test compound suspended in 0.5% tragacanth-saline was administered intraperitoneally or orally to male mice of dd-strain(body weight 16-24 g). The lethal dose was estimated from the death of animals 72 hours following administration.
# writhing syndrome = assay: Analgetic activity (acetic acid writhing syndrome); type: in vivo, mouse (dd-strain); conditions: Mus musculus, 1 h; oral, mice, 0.6% acetic acid i.p. one hour later; Litchfield-Wilcoxon; read-out: analgetic effect ED50 (95% C.L.)
# Description: Each test compound suspended in 0.5% tragacanth-saline was orally administered to dd-strain mice(body weight: 18-20 g). After one hour 0.6% acetic acid solution was injected intraperitoneally in a volume of 0.1 ml/10 g.
Structure (SMILES),"anti-inflammatory effect, topical (relative inhibition, ibuprofen = 1.0) [1]","anti-inflammatory effect, oral, 10 mg/kg (relative inhibition, ibuprofen = 1.0) (carrageenin edema)","anti-inflammatory effect, oral, 50 mg/kg (relative inhibition, ibuprofen = 1.0) (carrageenin edema)","acute toxicity, oral (lethal dose) (male mice of dd-strain) [mg/kg]",ED50 (writhing syndrome) [mg/kg]
CC(C)Cc1ccc(C(C)C(=O)OCCN2CCOCC2)cc1 (stereo not drawn),1.6,0.7,0.9,1000 to 2000,154
"CC(C)Cc1ccc(C(C)C(=O)OCC(F)(F)F)cc1 (stereo not drawn) [Compound 9, 2-(p-isobutylphenyl)propionic acid-2,2,2-trifluoroethyl ester]",3.6,0.8,1.3,1000 to 2000,135
CC(C)Cc1ccc(C(C)C(=O)OCc2cccnc2Cl)cc1 (stereo not drawn),1.8,0.8,2.5,> 2000,762
CC(C)Cc1ccc(C(C)C(=O)OCCCN(C)C)cc1 (stereo not drawn),2.2,0.7,1.1,500 to 1000,29.9
CCCCCCOC(=O)C(C)c1ccc(CC(C)C)cc1 (stereo not drawn) [Compound 6],3.5,–,1.2,> 2000,215
CC(C)Cc1ccc(C(C)C(=O)OCCOCCO)cc1 (stereo not drawn) [Compound 16],2.3,–,0.9,> 2000,151
CCOCOC(=O)C(C)c1ccc(CC(C)C)cc1 (stereo not drawn) [Compound 13],2.8,1.3,1.0,> 2000,155
CCOC(=O)COC(=O)C(C)c1ccc(CC(C)C)cc1 (stereo not drawn) [Compound 19],1.9,0.5,0.7,> 2000,180
CCN(CC)CCOC(=O)C(C)c1ccc(CC(C)C)cc1 (stereo not drawn),3.0,1.2,0.9,500 to 1000,318
CC(C)Cc1ccc(C(C)C(=O)OCc2cccnc2)cc1 (stereo not drawn),1.7,1.0,1.4,1000 to 2000,31.2
